Measurements from BindingDB's records for doi:10.1016/1074-5521(95)90264-3 (Smithkline Beecham Pharmaceuticals, 1995).

Target: Peptidyl-prolyl cis-trans isomerase FKBP1A (Homo sapiens, UniProt P62942)
Assay: FKBP12 Assay
From the text: FKBP12 assay using rapamycin analogs.

Sequence of Peptidyl-prolyl cis-trans isomerase FKBP1A (P62942 whole entry): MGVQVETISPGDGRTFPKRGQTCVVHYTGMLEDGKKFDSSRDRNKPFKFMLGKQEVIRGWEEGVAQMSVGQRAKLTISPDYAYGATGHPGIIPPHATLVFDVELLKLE

SMILES	EC50 [nM]	Ki [nM]
CO[C@@H]1C[C@H](C[C@@H](C)[C@@H]2CC(=O)[C@H](C)/C=C(\C)[C@@H](O)[C@@H](OC)C(=O)[C@H](C)C[C@H](C)/C=C/C=C/C=C(\C)[C@H](c3ccco3)C[C@@H]3CC[C@@H](C)[C@@](O)(O3)C(=O)C(=O)N3CCCC[C@H]3C(=O)O2)CC[C@H]1O [Rapamycin C-7, analog 10a]	20	3
COc1ccc([C@@H]2C[C@@H]3CC[C@@H](C)[C@@](O)(O3)C(=O)C(=O)N3CCCC[C@H]3C(=O)O[C@H]([C@H](C)C[C@@H]3CC[C@@H](O)[C@H](OC)C3)CC(=O)[C@H](C)/C=C(\C)[C@@H](O)[C@@H](OC)C(=O)[C@H](C)C[C@H](C)/C=C/C=C/C=C/2C)c(OC)c1 [Rapamycin C-7, analog 8a]	1000	9
COC(=O)N[C@H]1C[C@@H]2CC[C@@H](C)[C@@](O)(O2)C(=O)C(=O)N2CCCC[C@H]2C(=O)O[C@H]([C@H](C)C[C@@H]2CC[C@@H](O)[C@H](OC)C2)CC(=O)[C@H](C)/C=C(\C)[C@@H](O)[C@@H](OC)C(=O)[C@H](C)C[C@H](C)/C=C/C=C/C=C/1C [Rapamycin C-7, analog 7b]	2500	3.7
CO[C@@H]1C[C@H](C[C@@H](C)[C@@H]2CC(=O)[C@H](C)/C=C(\C)[C@@H](O)[C@@H](OC)C(=O)[C@H](C)C[C@H](C)/C=C/C=C/C=C(\C)[C@H](SC)C[C@@H]3CC[C@@H](C)[C@@](O)(O3)C(=O)C(=O)N3CCCC[C@H]3C(=O)O2)CC[C@H]1O [Rapamycin C-7, analog 6a]	4	1
CO[C@@H]1C[C@H](C[C@@H](C)[C@@H]2CC(=O)[C@H](C)/C=C(\C)[C@@H](O)[C@@H](OC)C(=O)[C@H](C)C[C@H](C)/C=C/C=C/C=C(\C)[C@@H](SC)C[C@@H]3CC[C@@H](C)[C@@](O)(O3)C(=O)C(=O)N3CCCC[C@H]3C(=O)O2)CC[C@H]1O [Rapamycin C-7, analog 6b]	4	1
CCO[C@H]1C[C@@H]2CC[C@@H](C)[C@@](O)(O2)C(=O)C(=O)N2CCCC[C@H]2C(=O)O[C@H]([C@H](C)C[C@@H]2CC[C@@H](O)[C@H](OC)C2)CC(=O)[C@H](C)/C=C(\C)[C@@H](O)[C@@H](OC)C(=O)[C@H](C)C[C@H](C)/C=C/C=C/C=C/1C [Rapamycin C-7, analog 5b]	200	4
CO[C@@H]1C[C@H](C[C@@H](C)[C@@H]2CC(=O)[C@H](C)/C=C(\C)[C@@H](O)[C@@H](OC)C(=O)[C@H](C)C[C@H](C)C=CC=CC=C(C)C(=O)C[C@@H]3CC[C@@H](C)[C@@](O)(O3)C(=O)C(=O)N3CCCC[C@H]3C(=O)O2)CC[C@H]1O [Rapamycin C-7, analog 13]	300	29
CCO[C@@H]1C[C@@H]2CC[C@@H](C)[C@@](O)(O2)C(=O)C(=O)N2CCCC[C@H]2C(=O)O[C@H]([C@H](C)C[C@@H]2CC[C@@H](O)[C@H](OC)C2)CC(=O)[C@H](C)/C=C(\C)[C@@H](O)[C@@H](OC)C(=O)[C@H](C)C[C@H](C)/C=C/C=C/C=C/1C [Rapamycin C-7, analog 5a]	10	3.5
COC(=O)N[C@@H]1C[C@@H]2CC[C@@H](C)[C@@](O)(O2)C(=O)C(=O)N2CCCC[C@H]2C(=O)O[C@H]([C@H](C)C[C@@H]2CC[C@@H](O)[C@H](OC)C2)CC(=O)[C@H](C)/C=C(\C)[C@@H](O)[C@@H](OC)C(=O)[C@H](C)C[C@H](C)/C=C/C=C/C=C/1C [Rapamycin C-7, analog 7a]	> 10000	4.5

Other lines, results leading:

EC50 [nM]	Ki [nM]	SMILES
2	1	CO[C@@H]1C[C@H](C[C@@H](C)[C@@H]2CC(=O)[C@H](C)/C=C(\C)[C@@H](O)[C@@H](OC)C(=O)[C@H](C)C[C@H](C)/C=C/C=C/C=C(\C)CC[C@@H]3CC[C@@H](C)[C@@](O)(O3)C(=O)C(=O)N3CCCC[C@H]3C(=O)O2)CC[C@H]1O [Rapamycin C-7, analog 12]
> 1000	7	COc1cc(OC)c([C@H]2C[C@@H]3CC[C@@H](C)[C@@](O)(O3)C(=O)C(=O)N3CCCC[C@H]3C(=O)O[C@H]([C@H](C)C[C@@H]3CC[C@@H](O)[C@H](OC)C3)CC(=O)[C@H](C)/C=C(\C)[C@@H](O)[C@@H](OC)C(=O)[C@H](C)C[C@H](C)/C=C/C=C/C=C/2C)c(OC)c1 [Rapamycin C-7, analog 9]
11	10	CO[C@@H]1C[C@H](C[C@@H](C)[C@@H]2CC(=O)[C@H](C)/C=C(\C)[C@@H](O)[C@@H](OC)C(=O)[C@H](C)C[C@H](C)/C=C/C=C/C=C(\C)[C@H](c3ccc[nH]3)C[C@@H]3CC[C@@H](C)[C@@](O)(O3)C(=O)C(=O)N3CCCC[C@H]3C(=O)O2)CC[C@H]1O [Rapamycin C-7, analog 11a]
6	5	CO[C@@H]1C[C@H](C[C@@H](C)[C@@H]2CC(=O)[C@H](C)/C=C(\C)[C@@H](O)[C@@H](OC)C(=O)[C@H](C)C[C@H](C)/C=C/C=C/C=C(\C)[C@H](OCc3ccccc3)C[C@@H]3CC[C@@H](C)[C@@](O)(O3)C(=O)C(=O)N3CCCC[C@H]3C(=O)O2)CC[C@H]1O [Rapamycin C-7, analog 14a]
> 1000	38	COc1ccc([C@H]2C[C@@H]3CC[C@@H](C)[C@@](O)(O3)C(=O)C(=O)N3CCCC[C@H]3C(=O)O[C@H]([C@H](C)C[C@@H]3CC[C@@H](O)[C@H](OC)C3)CC(=O)[C@H](C)/C=C(\C)[C@@H](O)[C@@H](OC)C(=O)[C@H](C)C[C@H](C)/C=C/C=C/C=C/2C)c(OC)c1 [Rapamycin C-7, analog 8b]
45	1	CO[C@@H]1C[C@H](C[C@@H](C)[C@@H]2CC(=O)[C@H](C)/C=C(\C)[C@@H](O)[C@@H](OC)C(=O)[C@H](C)C[C@H](C)/C=C/C=C/C=C(\C)[C@H](OCc3ccc(Cl)cc3)C[C@@H]3CC[C@@H](C)[C@@](O)(O3)C(=O)C(=O)N3CCCC[C@H]3C(=O)O2)CC[C@H]1O [Rapamycin C-7, analog 16a]
20	6	CO[C@@H]1C[C@H](C[C@@H](C)[C@@H]2CC(=O)[C@H](C)/C=C(\C)[C@@H](O)[C@@H](OC)C(=O)[C@H](C)C[C@H](C)/C=C/C=C/C=C(\C)[C@@H](c3ccco3)C[C@@H]3CC[C@@H](C)[C@@](O)(O3)C(=O)C(=O)N3CCCC[C@H]3C(=O)O2)CC[C@H]1O [Rapamycin C-7, analog 10b]
70	1.5	CO[C@@H]1C[C@H](C[C@@H](C)[C@@H]2CC(=O)[C@H](C)/C=C(\C)[C@@H](O)[C@@H](OC)C(=O)[C@H](C)C[C@H](C)/C=C/C=C/C=C(\C)[C@@H](c3ccc[nH]3)C[C@@H]3CC[C@@H](C)[C@@](O)(O3)C(=O)C(=O)N3CCCC[C@H]3C(=O)O2)CC[C@H]1O [Rapamycin C-7, analog 11b]
90	30	CO[C@@H]1C[C@H](C[C@@H](C)[C@@H]2CC(=O)[C@H](C)/C=C(\C)[C@@H](O)[C@@H](OC)C(=O)[C@H](C)C[C@H](C)/C=C/C=C/C=C(\C)[C@H](OCc3ccc(N=[N+]=[N-])c(I)c3)C[C@@H]3CC[C@@H](C)[C@@](O)(O3)C(=O)C(=O)N3CCCC[C@H]3C(=O)O2)CC[C@H]1O [Rapamycin C-7, analog 17a]
50	7	CO[C@@H]1C[C@H](C[C@@H](C)[C@@H]2CC(=O)[C@H](C)/C=C(\C)[C@@H](O)[C@@H](OC)C(=O)[C@H](C)C[C@H](C)/C=C/C=C/C=C(\C)[C@H](OCc3cccc([N+](=O)[O-])c3)C[C@@H]3CC[C@@H](C)[C@@](O)(O3)C(=O)C(=O)N3CCCC[C@H]3C(=O)O2)CC[C@H]1O [Rapamycin C-7, analog 15a]
